Measured values published in ChEMBL document CHEMBL3132769, “Fragment growing to retain or alter the selectivity of anchored kinase hinge-binding fragments” (Medchemcomm, 2014).

How the values were obtained:
[1] = molecular target: RAF proto-oncogene serine/threonine-protein kinase (Homo sapiens) (UniProt P04049); test: Inhibition of human truncated c-Raf expressed in baculovirus assessed as substrate phosphorylation using fluorescence-labelled peptides as substrate at 95 uM after 90 mins by microfluidic peptide phosphorylation assay
[2] = molecular target: T1, cGMP-dependent protein kinase 1 (Homo sapiens) (UniProt Q13976); test: Inhibition of human full length PKG-1beta expressed in baculovirus assessed as substrate phosphorylation using fluorescence-labelled peptides as substrate at 0.06 uM after 90 mins by microfluidic peptide phosphorylation assay
T1 sequence (whole entry): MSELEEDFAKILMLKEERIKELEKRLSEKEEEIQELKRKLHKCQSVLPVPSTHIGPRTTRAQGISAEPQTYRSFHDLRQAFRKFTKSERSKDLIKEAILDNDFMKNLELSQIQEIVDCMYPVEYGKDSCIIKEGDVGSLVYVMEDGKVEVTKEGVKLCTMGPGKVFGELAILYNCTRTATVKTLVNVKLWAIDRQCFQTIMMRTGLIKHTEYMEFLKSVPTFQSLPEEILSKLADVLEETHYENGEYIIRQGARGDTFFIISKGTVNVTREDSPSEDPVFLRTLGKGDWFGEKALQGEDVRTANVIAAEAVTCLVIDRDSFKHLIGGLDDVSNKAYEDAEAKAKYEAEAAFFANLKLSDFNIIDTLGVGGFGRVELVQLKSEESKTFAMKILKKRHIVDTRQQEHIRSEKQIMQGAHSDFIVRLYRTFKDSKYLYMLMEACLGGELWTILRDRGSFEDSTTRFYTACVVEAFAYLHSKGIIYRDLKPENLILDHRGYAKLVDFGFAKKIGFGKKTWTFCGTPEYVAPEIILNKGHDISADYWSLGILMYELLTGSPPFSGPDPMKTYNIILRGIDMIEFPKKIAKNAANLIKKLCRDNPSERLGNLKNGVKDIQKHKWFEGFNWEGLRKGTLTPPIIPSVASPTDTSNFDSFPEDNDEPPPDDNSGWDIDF

[3] = molecular target: T2, Testis-specific serine/threonine-protein kinase 2 (Homo sapiens) (UniProt Q96PF2); test: Inhibition of human full length TSSK2 expressed in baculovirus assessed as substrate phosphorylation using fluorescence-labelled peptides as substrate at 0.06 uM after 90 mins by microfluidic peptide phosphorylation assay
T2 sequence (whole entry): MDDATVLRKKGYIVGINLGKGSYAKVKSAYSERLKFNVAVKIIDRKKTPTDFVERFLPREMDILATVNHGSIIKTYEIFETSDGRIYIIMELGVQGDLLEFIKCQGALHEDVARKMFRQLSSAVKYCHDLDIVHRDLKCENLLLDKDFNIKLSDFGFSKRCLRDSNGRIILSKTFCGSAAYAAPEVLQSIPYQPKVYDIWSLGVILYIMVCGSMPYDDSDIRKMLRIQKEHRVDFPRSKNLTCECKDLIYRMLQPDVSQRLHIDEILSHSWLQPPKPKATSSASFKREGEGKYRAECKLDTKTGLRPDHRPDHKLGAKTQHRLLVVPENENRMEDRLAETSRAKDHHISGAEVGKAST

[4] = molecular target: MAP kinase-activated protein kinase 2 (Homo sapiens) (UniProt P49137); test: Inhibition of human full length MAPKAPK2 expressed in baculovirus assessed as substrate phosphorylation using fluorescence-labelled peptides as substrate at 0.06 uM after 90 mins by microfluidic peptide phosphorylation assay
[5] = tested on: Tyrosine-protein kinase ABL1 (Homo sapiens), P00519 [T315I]; test: Inhibition of human truncated ABL T315I mutant expressed in baculovirus assessed as substrate phosphorylation using fluorescence-labelled peptides as substrate at 70 uM after 90 mins by microfluidic peptide phosphorylation assay
[6] = molecular target: T3, Calcium/calmodulin-dependent protein kinase type IV (Homo sapiens) (UniProt Q16566); test: Inhibition of human full length CAMK4 expressed in baculovirus assessed as substrate phosphorylation using fluorescence-labelled peptides as substrate at 0.2 uM after 90 mins by microfluidic peptide phosphorylation assay
T3 sequence (whole entry): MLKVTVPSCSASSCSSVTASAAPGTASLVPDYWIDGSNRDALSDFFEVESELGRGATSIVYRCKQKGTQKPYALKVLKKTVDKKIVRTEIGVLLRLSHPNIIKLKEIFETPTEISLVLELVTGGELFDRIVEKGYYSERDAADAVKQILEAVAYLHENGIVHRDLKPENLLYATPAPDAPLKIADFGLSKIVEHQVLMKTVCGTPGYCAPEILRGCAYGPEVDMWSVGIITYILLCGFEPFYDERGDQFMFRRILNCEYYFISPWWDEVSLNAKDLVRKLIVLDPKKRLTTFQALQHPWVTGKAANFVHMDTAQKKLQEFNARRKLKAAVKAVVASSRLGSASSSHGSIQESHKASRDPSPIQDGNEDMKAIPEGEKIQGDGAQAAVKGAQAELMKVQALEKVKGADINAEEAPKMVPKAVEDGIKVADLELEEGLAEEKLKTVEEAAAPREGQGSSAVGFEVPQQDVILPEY

[7] = molecular target: Protein kinase C eta type (Homo sapiens) (UniProt P24723); test: Inhibition of human truncated PKC eta expressed in baculovirus assessed as substrate phosphorylation using fluorescence-labelled peptides as substrate at 0.2 uM after 90 mins by microfluidic peptide phosphorylation assay
[8] = molecular target: T4, Serine/threonine-protein kinase Sgk3 (Homo sapiens) (UniProt Q96BR1); test: Inhibition of human full length SGK3 expressed in baculovirus assessed as substrate phosphorylation using fluorescence-labelled peptides as substrate at 2 uM after 90 mins by microfluidic peptide phosphorylation assay
T4 sequence (whole entry): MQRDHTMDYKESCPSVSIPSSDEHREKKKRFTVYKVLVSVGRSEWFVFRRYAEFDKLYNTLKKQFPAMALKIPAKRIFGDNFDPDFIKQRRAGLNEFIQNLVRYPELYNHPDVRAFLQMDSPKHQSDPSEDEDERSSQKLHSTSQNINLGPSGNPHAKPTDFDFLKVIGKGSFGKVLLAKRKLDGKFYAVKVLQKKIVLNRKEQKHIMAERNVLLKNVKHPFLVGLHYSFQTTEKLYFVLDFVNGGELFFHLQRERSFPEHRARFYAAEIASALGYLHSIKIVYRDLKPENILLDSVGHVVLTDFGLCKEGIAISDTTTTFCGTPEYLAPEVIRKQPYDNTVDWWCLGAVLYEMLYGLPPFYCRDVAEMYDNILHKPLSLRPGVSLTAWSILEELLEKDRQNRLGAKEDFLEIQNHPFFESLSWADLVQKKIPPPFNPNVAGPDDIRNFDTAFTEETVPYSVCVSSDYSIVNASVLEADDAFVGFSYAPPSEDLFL

[9] = molecular target: Ribosomal protein S6 kinase alpha-5 (Homo sapiens) (UniProt O75582); test: Inhibition of human full length MSK1 expressed in baculovirus assessed as substrate phosphorylation using fluorescence-labelled peptides as substrate at 2 uM after 90 mins by microfluidic peptide phosphorylation assay
Chain of Ribosomal protein S6 kinase alpha-5 (Homo sapiens) (O75582 whole entry, looked up): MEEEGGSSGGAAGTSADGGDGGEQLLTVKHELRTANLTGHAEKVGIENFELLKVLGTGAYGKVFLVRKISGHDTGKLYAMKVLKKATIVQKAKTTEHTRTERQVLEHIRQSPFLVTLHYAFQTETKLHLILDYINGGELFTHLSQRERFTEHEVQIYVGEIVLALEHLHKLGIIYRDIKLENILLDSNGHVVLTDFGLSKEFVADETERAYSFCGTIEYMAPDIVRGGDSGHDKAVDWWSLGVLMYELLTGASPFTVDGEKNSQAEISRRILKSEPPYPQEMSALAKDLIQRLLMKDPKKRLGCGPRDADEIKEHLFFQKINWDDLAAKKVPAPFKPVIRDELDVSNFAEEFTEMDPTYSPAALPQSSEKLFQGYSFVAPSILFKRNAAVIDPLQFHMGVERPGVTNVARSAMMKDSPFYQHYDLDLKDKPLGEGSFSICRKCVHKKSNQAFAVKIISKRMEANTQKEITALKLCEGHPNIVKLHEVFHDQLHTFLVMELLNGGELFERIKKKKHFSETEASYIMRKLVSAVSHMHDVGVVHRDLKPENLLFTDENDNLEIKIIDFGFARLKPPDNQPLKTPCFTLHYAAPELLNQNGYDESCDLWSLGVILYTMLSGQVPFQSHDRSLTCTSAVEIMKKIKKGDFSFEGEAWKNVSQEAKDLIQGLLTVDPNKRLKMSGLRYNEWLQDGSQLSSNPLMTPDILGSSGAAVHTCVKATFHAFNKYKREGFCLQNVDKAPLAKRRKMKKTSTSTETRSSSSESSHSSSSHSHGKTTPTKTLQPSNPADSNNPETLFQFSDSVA

Chain of Protein kinase C eta type (Homo sapiens) (P24723 whole entry, the tested form may be a part): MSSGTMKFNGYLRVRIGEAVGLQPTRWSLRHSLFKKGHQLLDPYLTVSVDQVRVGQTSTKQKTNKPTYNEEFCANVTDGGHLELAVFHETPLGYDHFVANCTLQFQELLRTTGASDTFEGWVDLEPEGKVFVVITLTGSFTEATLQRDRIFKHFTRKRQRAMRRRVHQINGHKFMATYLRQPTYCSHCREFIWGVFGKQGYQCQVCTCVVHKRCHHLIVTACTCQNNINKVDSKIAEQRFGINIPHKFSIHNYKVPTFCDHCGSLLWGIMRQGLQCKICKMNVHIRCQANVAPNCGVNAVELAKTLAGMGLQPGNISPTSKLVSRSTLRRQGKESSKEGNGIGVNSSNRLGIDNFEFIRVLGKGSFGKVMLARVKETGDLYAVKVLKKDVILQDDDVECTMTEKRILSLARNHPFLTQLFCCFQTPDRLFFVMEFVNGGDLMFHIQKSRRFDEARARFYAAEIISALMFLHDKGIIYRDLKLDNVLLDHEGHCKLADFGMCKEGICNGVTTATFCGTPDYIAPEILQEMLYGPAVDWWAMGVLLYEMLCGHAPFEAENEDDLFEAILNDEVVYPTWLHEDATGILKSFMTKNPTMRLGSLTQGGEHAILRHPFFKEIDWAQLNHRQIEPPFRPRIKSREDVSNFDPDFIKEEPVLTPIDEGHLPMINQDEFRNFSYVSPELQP
Chain of RAF proto-oncogene serine/threonine-protein kinase (Homo sapiens) (P04049 whole entry, the tested form may be a part): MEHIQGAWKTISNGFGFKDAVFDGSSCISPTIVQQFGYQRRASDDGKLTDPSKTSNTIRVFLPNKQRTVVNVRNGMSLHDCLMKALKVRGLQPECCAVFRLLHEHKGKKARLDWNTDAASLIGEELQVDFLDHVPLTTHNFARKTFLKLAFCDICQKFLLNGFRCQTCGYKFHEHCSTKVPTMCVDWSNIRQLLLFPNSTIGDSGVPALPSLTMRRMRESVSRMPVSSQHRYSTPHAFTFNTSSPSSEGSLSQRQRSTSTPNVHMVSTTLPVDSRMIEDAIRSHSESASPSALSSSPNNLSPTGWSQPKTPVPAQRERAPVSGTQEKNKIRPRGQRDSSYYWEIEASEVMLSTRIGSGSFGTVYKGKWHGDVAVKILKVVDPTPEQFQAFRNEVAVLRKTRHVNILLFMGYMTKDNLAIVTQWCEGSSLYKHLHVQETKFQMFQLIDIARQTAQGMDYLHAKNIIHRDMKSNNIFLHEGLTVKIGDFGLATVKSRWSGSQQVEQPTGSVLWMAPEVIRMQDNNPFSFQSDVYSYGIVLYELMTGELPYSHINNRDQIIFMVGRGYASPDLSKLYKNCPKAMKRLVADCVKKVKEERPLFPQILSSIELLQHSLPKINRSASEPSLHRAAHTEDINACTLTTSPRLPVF
Chain of MAP kinase-activated protein kinase 2 (Homo sapiens) (P49137 whole entry, looked up, the tested form may be a part): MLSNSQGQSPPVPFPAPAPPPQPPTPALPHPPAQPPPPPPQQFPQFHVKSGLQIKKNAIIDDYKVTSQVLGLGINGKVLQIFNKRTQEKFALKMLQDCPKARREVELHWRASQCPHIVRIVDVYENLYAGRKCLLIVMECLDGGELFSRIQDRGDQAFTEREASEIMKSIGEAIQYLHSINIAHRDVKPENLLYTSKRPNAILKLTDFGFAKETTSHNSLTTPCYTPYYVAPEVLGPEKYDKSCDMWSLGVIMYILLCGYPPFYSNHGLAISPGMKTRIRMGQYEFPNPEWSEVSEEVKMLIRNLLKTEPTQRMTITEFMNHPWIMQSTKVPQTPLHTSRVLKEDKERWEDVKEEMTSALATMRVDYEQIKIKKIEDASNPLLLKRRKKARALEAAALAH

Molecule NCCc1ccc(-c2ncnc3[nH]cnc23)cc1 has an inhibition [1] of 39.5%.

NC1(Cc2ccc(Cl)cc2)CCN(c2ncnc3[nH]ccc23)CC1 showed an inhibition [2] of 0%, an inhibition [3] of 3% and an inhibition [4] of 0%.

CNCc1ccc(-c2ncnc3[nH]cnc23)cc1 showed an inhibition [5] of 22%.

In the case of Clc1ccc(C2(c3ccc(-c4ncnc5[nH]cnc45)cc3)CCNCC2)cc1, the inhibition [6] is reported as 74% and the inhibition [7] is reported as 36.5%.

Molecule NC1CCN(c2ncnc3[nH]ccc23)CC1 has an inhibition [8] of 34.5% and an inhibition [9] of 0.5%.
